{"source": "patent US20060257484A1", "about": "“Combination of tramadol and substances that comprise gabapentin” (priority 2005, published 2006)", "key": {"[1]": {"assay": "Expected pharmacokinetic parameters in rat after tramadol HCl plus gabapentin (model)", "excerpt": "In another modeling approach, the dose of gabapentin for humans can be evaluated in order to match the AUCinf ratio for gabapentin to tramadol and O-demthyltramadol in rat."}, "[2]": {"conditions": "cited from earlier work"}, "[3]": {"assay": "Expected human pharmacokinetic parameters at 200 mg tramadol per day (model matching rat AUCinf ratio)", "assay_type": "in vivo", "conditions": "200 mg tramadol per day for humans; for expected Cavg: gabapentin at 6.77 fold AUC ratio (daily dose 505 mg gabapentin equivalent)", "excerpt": "Additional ranges can be determined for other species."}, "[4]": {"conditions": "steady state, cited from earlier work"}, "[5]": {"conditions": "single oral dose 10 mg/kg tramadol HCl, 8 male Sprague-Dawley rats, cited from earlier work"}, "[6]": {"conditions": "single oral dose 25 mg/kg gabapentin, 6 male Sprague-Dawley rats; cited from earlier work"}, "Chung model": {"tested_on": "Chung model", "conditions": "Chung model disclosed in Codd; cited from earlier work"}, "[7]": {"conditions": "higher doses increase less than expected; cited from earlier work"}, "[8]": {"conditions": "single administration of 10 mg/kg tramadol HCl and 5 mg/kg gabapentin, assuming no pharmacokinetic interaction"}, "[9]": {"conditions": "after five days of tramadol 100 mg twice daily"}, "[10]": {"conditions": "Immediate Release Capsule, 50 mg four times daily"}, "[11]": {"conditions": "Modified Release Formulation, 200 mg once daily"}}, "note": "Counter-ions that a name gives are not always drawn. Like-named read-outs stand apart in the source and are kept apart here."}
{"smiles": "CN(C)CC1CCCCC1(O)c1cccc(O)c1", "note": "(racemic) [(±) M1, trans-O-demethyltramadol]", "values": [{"measurement": "expected AUCinf", "setting": "[1]; [8]", "value": 523, "unit": "ng·h/mL"}, {"measurement": "expected Cmax", "setting": "[1]; [8]", "value": 331, "unit": "ng/mL"}]}
{"smiles": "COc1cccc(C2(O)CCCCC2CN(C)C)c1", "note": "(racemic) [tramadol]", "values": [{"measurement": "AUC0-12 at steady state", "setting": "[2]; [9]", "value": 2970, "unit": "ng·h/mL"}, {"measurement": "Cmax at steady state", "setting": "[2]; [9]", "value": 414, "unit": "ng/mL"}, {"measurement": "Cmax and AUCinf versus dose", "setting": "[2]; tramadol 400 mg given", "value": "proportional to the dose"}]}
{"smiles": "CN(C)CC1CCCCC1(O)c1cccc(O)c1", "note": "(single isomer, unassigned; (+)) [(+) M1, trans-O-demethyltramadol]", "values": [{"measurement": "expected Cmax", "setting": "[3]", "value": 36, "unit": "ng/mL"}, {"measurement": "expected Cmin", "setting": "[3]", "value": 21, "unit": "ng/mL"}, {"measurement": "expected Cavg", "setting": "[3]", "value": 11, "unit": "ng/mL"}, {"measurement": "AUC0-24", "setting": "[4]; [10]", "value": 644, "unit": "ng·h/mL"}, {"measurement": "Cmax", "setting": "[4]; [10]", "value": 36, "unit": "ng/mL"}, {"measurement": "Cmin", "setting": "[4]; [10]", "value": 21, "unit": "ng/mL"}, {"measurement": "AUC0-24", "setting": "[4]; [11]", "value": "704.12 (327.09) ng * h/ml"}, {"measurement": "Cmax", "setting": "[4]; [11]", "value": "42 (18.4) ng/mL"}, {"measurement": "Cmin", "setting": "[4]; [11]", "value": "16.71 (10.41) ng/mL"}, {"measurement": "AUCinf", "setting": "[5]; 10 mg/kg", "value": "16242 (2648) μg L^−1 min"}, {"measurement": "Cmax", "setting": "[5]; 10 mg/kg", "value": "136 (32) μg/L"}, {"measurement": "Tmax", "setting": "[5]; 10 mg/kg", "value": "34 (21) min"}]}
{"smiles": "CN(C)CC1CCCCC1(O)c1cccc(O)c1", "note": "(single isomer, unassigned; (-)) [(−) M1, trans-O-demethyltramadol]", "values": [{"measurement": "expected Cmax", "setting": "[3]", "value": 43, "unit": "ng/mL"}, {"measurement": "expected Cmin", "setting": "[3]", "value": 22, "unit": "ng/mL"}, {"measurement": "expected Cavg", "setting": "[3]", "value": 12, "unit": "ng/mL"}, {"measurement": "AUC0-24", "setting": "[4]; [10]", "value": 690, "unit": "ng·h/mL"}, {"measurement": "Cmax", "setting": "[4]; [10]", "value": 43, "unit": "ng/mL"}, {"measurement": "Cmin", "setting": "[4]; [10]", "value": 22, "unit": "ng/mL"}, {"measurement": "AUC0-24", "setting": "[4]; [11]", "value": "745 (286) ng * h/ml"}, {"measurement": "Cmax", "setting": "[4]; [11]", "value": "46 (18) ng/mL"}, {"measurement": "Cmin", "setting": "[4]; [11]", "value": "16 (8) ng/mL"}, {"measurement": "AUCinf", "setting": "[5]; 10 mg/kg", "value": "21178 (1987) μg L^−1 min"}, {"measurement": "Cmax", "setting": "[5]; 10 mg/kg", "value": "195 (63) μg/L"}, {"measurement": "Tmax", "setting": "[5]; 10 mg/kg", "value": "41 (24) min"}]}
{"smiles": "COc1cccc(C2(O)CCCCC2CN(C)C)c1", "note": "(single isomer, unassigned; (-)) [(−)-trans-T]", "values": [{"measurement": "expected Cmax", "setting": "[3]", "value": 157, "unit": "ng/mL"}, {"measurement": "expected Cmin", "setting": "[3]", "value": 86, "unit": "ng/mL"}, {"measurement": "expected Cavg", "setting": "[3]", "value": 113, "unit": "ng/mL"}, {"measurement": "AUC0-24", "setting": "[4]; [10]", "value": 2719, "unit": "ng·h/mL"}, {"measurement": "Cmax", "setting": "[4]; [10]", "value": 157, "unit": "ng/mL"}, {"measurement": "Cmin", "setting": "[4]; [10]", "value": 86, "unit": "ng/mL"}, {"measurement": "AUC0-24", "setting": "[4]; [11]", "value": "3005 (1120) ng * h/ml"}, {"measurement": "Cmax", "setting": "[4]; [11]", "value": "199 (75) ng/mL"}, {"measurement": "Cmin", "setting": "[4]; [11]", "value": "62 (30) ng/mL"}, {"measurement": "AUCinf", "setting": "[5]", "value": 5257, "unit": "µg·min/L"}, {"measurement": "Cmax", "setting": "[5]", "value": 74, "unit": "µg/L"}, {"measurement": "Tmax", "setting": "[5]", "value": 22, "unit": "min"}]}
{"smiles": "COc1cccc([C@@]2(O)CCCC[C@@H]2CN(C)C)c1", "note": "[(+)-trans-T]", "values": [{"measurement": "expected Cmax", "setting": "[3]", "value": 190, "unit": "ng/mL"}, {"measurement": "expected Cmin", "setting": "[3]", "value": 111, "unit": "ng/mL"}, {"measurement": "expected Cavg", "setting": "[3]", "value": 143, "unit": "ng/mL"}, {"measurement": "AUC0-24", "setting": "[4]; [10]", "value": 3429, "unit": "ng·h/mL"}, {"measurement": "Cmax", "setting": "[4]; [10]", "value": 190, "unit": "ng/mL"}, {"measurement": "Cmin", "setting": "[4]; [10]", "value": 111, "unit": "ng/mL"}, {"measurement": "AUC0-24", "setting": "[4]; [11]", "value": "3763 (1275) ng * h/ml"}, {"measurement": "Cmax", "setting": "[4]; [11]", "value": "239 (81) ng/mL"}, {"measurement": "Cmin", "setting": "[4]; [11]", "value": "81 (36) ng/mL"}, {"measurement": "AUCinf", "setting": "[5]", "value": 21501, "unit": "µg·min/L"}, {"measurement": "Cmax", "setting": "[5]", "value": 193, "unit": "µg/L"}, {"measurement": "Tmax", "setting": "[5]", "value": 22, "unit": "min"}]}
{"smiles": "NCC1(CC(=O)O)CCCCC1", "note": "[Gabapentin, gabapentin]", "values": [{"measurement": "expected Cavg", "setting": "[3]", "value": 1890, "unit": "ng/mL"}, {"measurement": "AUCinf", "setting": "[6]", "value": 32800, "unit": "ng·h/mL"}, {"measurement": "Cmax", "setting": "[6]", "value": 6850, "unit": "ng/mL"}, {"measurement": "Tmax", "setting": "[6]", "value": 108, "unit": "min"}, {"measurement": "ED50", "setting": "Chung model", "value": 439.50, "unit": "mg/kg"}, {"measurement": "dose up to which serum concentrations increase linearly", "setting": "[7]", "value": "up to 1800 mg/d"}, {"measurement": "AUCinf for gabapentin relative to that for (±) tramadol and (±) O-demthyltramadol", "setting": "[1]; Chung model (rat)", "value": 6.77, "unit": "fold"}]}
{"smiles": "COc1cccc(C2(O)CCCCC2CN(C)C)c1", "note": "(stereo not shown) [tramadol HCl]", "values": [{"measurement": "ED50", "setting": "Chung model", "value": 94.47, "unit": "mg/kg"}]}
